Measured values as given in patent US12102089B2, “Method for inactivating mold spores” (DSM IP ASSETS B.V., priority 2017, dated 2024).

Experiment: LC-MS/MS analysis of natamycin and mycosamine in heated ice tea sample
Assay type: physicochemical
Settings: 10 ppm natamycin at t=0, heated at 70° C.
Method: For the analysis of mycosamine at low concentrations (ppb level) a sample preparation is used with a cation exchange SPE material to isolate mycosamine from the sample matrix and/or remove possible interfering impurities therefrom. The analysis was performed on LC-MS/MS on a ZIC-HILIC column. For the identification and (semi) quantification a reference of mycosamine was prepared. The concentration of mycosamine in this reference was determined with ^1H-NMR.

Measured: mycosamine found in sample

C[C@@H](O)[C@@H](O)[C@H](N)[C@H](O)C=O [mycosamine]
2 mg/L: Example 1 ice tea sample (pH 3.15) | Example 2 ice tea sample | Example 3 ice tea sample
